The values that follow come from paper PMC10222686, “Synthesis and Molecular Docking Studies of Alkoxy- and Imidazole-Substituted Xanthones as α-Amylase and α-Glucosidase Inhibitors” (Molecules, 2023).

One data set deals with α-glucosidase. The data set is described as follows: α-Glucosidase inhibition assay (p-NPG substrate). Type of data set: biochemical, Saccharomyces cerevisiae. The settings on record: mean ± SD, n = 4.
Another data set concerns the target T1, α-amylase (Sus scrofa, UniProt P00690).
T1 construct: purchased Sigma-Aldrich; host or cells: porcine pancreas
T1 sequence (P00690 16-511): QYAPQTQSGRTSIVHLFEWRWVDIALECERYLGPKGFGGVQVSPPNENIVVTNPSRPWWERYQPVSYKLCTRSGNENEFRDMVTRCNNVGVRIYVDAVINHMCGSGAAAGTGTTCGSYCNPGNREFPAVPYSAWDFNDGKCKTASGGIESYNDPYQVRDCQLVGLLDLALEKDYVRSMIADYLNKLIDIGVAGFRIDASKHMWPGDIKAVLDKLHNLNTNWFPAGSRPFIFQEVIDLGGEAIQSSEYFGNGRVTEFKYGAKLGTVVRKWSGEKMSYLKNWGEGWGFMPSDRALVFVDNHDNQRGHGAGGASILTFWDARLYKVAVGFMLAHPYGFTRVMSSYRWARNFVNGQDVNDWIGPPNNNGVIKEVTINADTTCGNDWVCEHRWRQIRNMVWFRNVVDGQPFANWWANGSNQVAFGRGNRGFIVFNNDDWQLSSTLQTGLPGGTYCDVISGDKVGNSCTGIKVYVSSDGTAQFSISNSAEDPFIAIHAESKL
The data set is described as follows: α-Amylase inhibition assay (starch/DNS).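 For all read-outs here: reducing sugar measured by DNS colour at 540 nm, inhibition relative to enzyme reaction lacking test compound, blank without enzyme subtracted for background.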 Format: biochemical, porcine. As to conditions: mean ± SD, n = 4; for inhibition at 100 µM: NI = no inhibition; for IC50: compounds precipitate at 200 µM.

Data set [1] in a line: DPPH radical scavenging assay. The settings on record: mean ± SD, n = 4. The method, then: The scavenging of free radicals by the synthesized compounds was assessed based on the previously reported DPPH radical assay, with slight modifications. The reaction mixture consisted of 50 µL of compound in DMSO at various concentrations (from 2.5 mM to 0.2 mM) and 150 µL of DPPH solution at 133.33 µM in absolute ethanol. The reaction components were added at a ratio of 1:3 (v/v). The mixture was incubated at 37 °C for 30 min before absorbance was read at 517 nm using a microplate reader (Epoch, BioTek®). Butylhydroxytoulene (BHT) served as the positive control. Scavenging capacity (%) is expressed as the percentage decrease in DPPH. SC% = [(Acontrol − Atest)/Acontrol] × 100 where Acontrol is absorbance of the DPPH solution (control) and Atest is the absorbance of the solution of DPPH and one of the compounds.

Bounds are passed on as bounds.

Protocol for α-amylase: α-Amylase inhibitory activity was quantified according to the method developed by Chokki et al., with some modifications [65]. […] Finally, 100 µL of 3,5-dinitrosalicylic acid (DNS) was added and heated at 100 °C for 20 min, and absorbance was then read at 540 nm in a microplate reader (Epoch, BioTek®). The reaction system without any test compound was used as the control, and the system without α-amylase served as a blank for correcting background absorbance. The percentage of α-amylase inhibition was calculated for each sample with Equation (2):(2) % inhibition=Control absorbance−sample absorbance/Control absorbance×100
(§1) All measurements were performed in quadruplicate and the values are expressed as the mean ± standard deviation.
Protocol for α-glucosidase: The inhibitory activity of the compounds on α-glucosidase inhibition was quantified according to the method described by Salehi et al., with slight modifications [64]. A reaction was prepared by mixing 20 µL α-glucosidase solution (0.5 unit/mL), 120 µL 0.1 M phosphate buffer (pH 6.9), and 10 µL of the samples at concentrations from 400 µM to 4.0 µM. The solution was incubated in a 96-well microplate at 37 °C for 15 min. The enzymatic reaction was initiated by adding 20 µL of 5 mM p-NPG solution to 0.1 M phosphate buffer (pH 6.9), followed by incubation at 37 °C for 15 min. The reaction was stopped by adding 80 µL of 0.2 M sodium carbonate solution, and absorbance was read at 405 nm in a microplate reader (Epoch®, BioTek Instrument, Winooski, EUA). The reaction system without any test compounds was used as control, whereas the system without α-glucosidase served as blank for correcting background absorbance. The rate of α-glucosidase inhibition exerted by each sample was calculated with Equation (1):(1) % inhibition=Control absorbance−sample absorbance/Control absorbance×100
as §1

Regarding `C[C@H]1O[C@H](O[C@H]2[C@H](O)[C@@H](O)[C@@H](O[C@H]3[C@H](O)[C@@H](O)C(O)O[C@@H]3CO)O[C@@H]2CO)[C@H](O)[C@@H](O)[C@@H]1N[C@H]1C=C(CO)[C@@H](O)[C@H](O)[C@H]1O` (stereo partly shown) [Acarbose, acarbose, reference compound], in the data set with α-glucosidase, the “α-Glucosidase Inhibition (%) at 400 µM” value turned out to be 63.18 ± 0.7%. Also, the inhibition (as a rule, how much of the control response was suppressed) at 100 µM against α-amylase is 99.3 ± 0.06%.
As for `Cc1cc(C(C)(C)C)c(O)c(C(C)(C)C)c1` [BHT, butylhydroxytoluene, reference compound], the “% DPPH Scavenging Activity (2.5 mM)” value in data set [1] is listed as 85.2 ± 3.33 ^A‡ %.
Consider `COc1cc2oc3ccccc3c(=O)c2cc1O` [Compound 1, 2-Hydroxy-3-methoxy-9H-xanthen-9-one], for which, in the data set with α-glucosidase, the “α-Glucosidase Inhibition (%) at 400 µM” value was 26.5 ± 0.81% and the IC50 (as a rule, the concentration at which inhibition is half-maximal) is over 400 µM. At α-amylase, at 100 µM the inhibition was 98.7 ± 0.11% and the IC50 was found to be 26.5 ± 0.01 µM.
Turning to `COC(=O)/C(=C/N(C)C)Oc1cc2c(=O)c3ccccc3oc2cc1OC` [Compound 5, Methyl (Z)-3-(dimethylamino)-2-((3-methoxy-9-oxo-9H-xanthen-2-yl)oxy)acrylate], the “% DPPH Scavenging Activity (2.5 mM)” value in data set [1] is 13.9 ± 1.14 ^E,F %. Also, in the data set with α-glucosidase, the “α-Glucosidase Inhibition (%) at 400 µM” value is 15.2 ± 0.16% and the IC50 was over 400 µM. Besides, the inhibition at 100 µM against α-amylase was under 0%.
On to `COC(=O)COc1cc2c(=O)c3ccccc3oc2cc1OC` [Compound 6a, Methyl 2-((3-methoxy-9-oxo-9H-xanthen-2-yl)oxy)acetate], for which the melting point (in general, the temperature, or range, at which the solid turns liquid) was in the range of 139 to 140 °C. In addition, the “% DPPH Scavenging Activity (2.5 mM)” value in data set [1] is given as 1.7 ± 0.91 ^H,I %. Besides, in the data set on α-glucosidase, the “α-Glucosidase Inhibition (%) at 400 µM” value turned out to be 99.5 ± 0.2% and the IC50 came out at 143.6 ± 0.17 µM. On α-amylase, this compound displayed an inhibition at 100 µM of 8.7 ± 0.2% and an IC50 of over 200 µM.
On to `COc1cc2oc3ccccc3c(=O)c2cc1OCC(C)=O` [Compound 6b, 3-Methoxy-2-(2-oxopropoxy)-9H-xanthen-9-one], for which the melting point is 144 to 145 °C. For the same compound, the “% DPPH Scavenging Activity (2.5 mM)” value in data set [1] is on record as 11.8 ± 1.07 ^F,G %. Besides, in the data set with α-glucosidase, the “α-Glucosidase Inhibition (%) at 400 µM” value is reported as 9.3 ± 0.1% and the IC50 was over 400 µM.
`C=CCOc1cc2c(=O)c3ccccc3oc2cc1OC` [Compound 6d, 2-(Allyloxy)-3-methoxy-9H-xanthen-9-one]: the melting point lay in the range of 150 to 151 °C. Besides, in data set [1], the “% DPPH Scavenging Activity (2.5 mM)” value was 3.9 ± 0.58 ^H,I %. In addition, in the data set with α-glucosidase, the “α-Glucosidase Inhibition (%) at 400 µM” value came to 22.1 ± 1.04% and the IC50 was over 400 µM. In addition, at α-amylase, the inhibition at 100 µM was under 0%.
Consider `C=CCc1c(OCC(=O)c2ccc(Cl)cc2)c(OC)cc2oc3ccccc3c(=O)c12` [Compound 6e, 1-Allyl-2-(2-(4-chlorophenyl)-2-oxoethoxy)-3-methoxy-9H-xanthen-9-one], for which, in data set [1], the “% DPPH Scavenging Activity (2.5 mM)” value is given as 10.4 ± 0.83 ^F,G %. Also, in the data set with α-glucosidase, the “α-Glucosidase Inhibition (%) at 400 µM” value worked out at 98.6 ± 0.90% and the IC50 stood at 12.8 ± 0.01 µM. At α-amylase, this compound returned an inhibition at 100 µM of 60.3 ± 0.1% and an IC50 of 68.1 ± 0.04 µM.
Regarding `C=CCc1c(O)c(OC)cc2oc3ccccc3c(=O)c12` [Compound 7, 1-Allyl-2-hydroxy-3-methoxy-9H-xanthen-9-one], the “% DPPH Scavenging Activity (2.5 mM)” value in data set [1] is given as 45.9 ± 2.89 ^B† %. In the data set with α-glucosidase, the “α-Glucosidase Inhibition (%) at 400 µM” value is reported as 75.5 ± 0.50% and inhibition was half-maximal at 196.4 ± 0.07 µM (IC50). Further, at α-amylase, the inhibition at 100 µM turned out to be 7.8 ± 0.1% and the IC50 was over 200 µM.
In the case of `COc1cc2oc3ccccc3c(=O)c2c2c1OC(C)(C)C=C2` [Compound 8, 5-Methoxy-3,3-dimethylpyrano[3,2-a]xanthen-12(3H)-one], in data set [1], the “% DPPH Scavenging Activity (2.5 mM)” value is 1.9 ± 0.73 ^H,I %. Also, in the data set with α-glucosidase, the “α-Glucosidase Inhibition (%) at 400 µM” value is given as 38.3 ± 0.04% and the IC50 was over 400 µM. This compound also had an inhibition at 100 µM against α-amylase of under 0%.
For `COc1cc2oc3ccccc3c(=O)c2cc1OCCCCBr` [Compound 9a, 2-(4-Bromobutoxy)-3-methoxy-9H-xanthen-9-one], in data set [1], the “% DPPH Scavenging Activity (2.5 mM)” value is listed as 19.5 ± 1.22 ^D %. For the same compound, in the data set on α-glucosidase, the “α-Glucosidase Inhibition (%) at 400 µM” value is recorded as 97.8 ± 0.3% and half-maximal inhibition (IC50) required 40 ± 0.018 µM. Also, on α-amylase, the inhibition at 100 µM is 62.9 ± 0.2% and it took 73.5 ± 0.04 µM to reach half-maximal inhibition (IC50).
`COc1cc2oc3ccccc3c(=O)c2cc1OCCCCn1ccnc1` [Compound 10a, 2-(4-(1H-imidazol-1-yl)butoxy)-3-methoxy-9H-xanthen-9-one] yielded a melting point of 137 to 138 °C. In addition, in data set [1], the “% DPPH Scavenging Activity (2.5 mM)” value is reported as 0.8 ± 0.01 ^I %. Further, in the data set with α-glucosidase, the “α-Glucosidase Inhibition (%) at 400 µM” value is recorded as 1.3 ± 0.01% and the IC50 is over 400 µM. Also, the inhibition at 100 µM against α-amylase was under 0%.
Regarding `COc1cc2oc3ccccc3c(=O)c2cc1OCCCCn1ccnc1-c1ccccc1` [Compound 10b, 3-Methoxy-2-(4-(2-phenyl-1H-imidazol-1-yl)butoxy)-9H-xanthen-9-one], the melting point was in the range of 132 to 134 °C. The “% DPPH Scavenging Activity (2.5 mM)” value in data set [1] was 12.2 ± 0.08 ^F,G %. In the data set on α-glucosidase, the “α-Glucosidase Inhibition (%) at 400 µM” value stood at 90.2 ± 0.21% and the IC50 was determined as 212.4 ± 0.1 µM. On α-amylase, this compound showed an inhibition at 100 µM of 9.7 ± 0.21% and an IC50 of over 200 µM.
For `C=CCc1c(OCCCCn2ccnc2)c(OC)cc2oc3ccccc3c(=O)c12` [Compound 10d, 2-(4-(1H-Imidazol-1-yl)butoxy)-1-allyl-3-methoxy-9H-xanthen-9-one], the “% DPPH Scavenging Activity (2.5 mM)” value in data set [1] is 5.1 ± 0.08 ^H %. Besides, in the data set with α-glucosidase, the “α-Glucosidase Inhibition (%) at 400 µM” value was found to be 2.5 ± 0.01% and the IC50 is over 400 µM. The inhibition at 100 µM on α-amylase was under 0%.
Take `C=CCc1c(OCCCCn2ccnc2-c2ccc(Cl)cc2)c(OC)cc2oc3ccccc3c(=O)c12` [Compound 10f, 1-Allyl-2-(4-(2-(4-chlorophenyl)-1H-imidazol-1-yl)butoxy)-3-methoxy-9H-xanthen-9-one]: the melting point is 90 to 92 °C. Further, the “% DPPH Scavenging Activity (2.5 mM)” value in data set [1] is 11.2 ± 1.02 ^F,G %. In addition, in the data set with α-glucosidase, the “α-Glucosidase Inhibition (%) at 400 µM” value was 99.4 ± 0.51% and inhibition was half-maximal at 145.2 ± 0.17 µM (IC50). On α-amylase, this compound returned an inhibition at 100 µM of 93.3 ± 0.12% and an IC50 of 8.7 ± 0.06 µM.
As for `COc1cc2oc3ccccc3c(=O)c2cc1OCC1CO1` (stereo not shown) [Compound 11a, 3-Methoxy-2-(oxiran-2-ylmethoxy)-9H-xanthen-9-one], the melting point was 143 to 144 °C. Also, in data set [1], the “% DPPH Scavenging Activity (2.5 mM)” value is reported as 19.8 ± 1.04 ^D %. In addition, in the data set with α-glucosidase, the “α-Glucosidase Inhibition (%) at 400 µM” value is reported as 0.48 ± 0.02% and the IC50 is over 400 µM. At α-amylase, this compound came in with an inhibition at 100 µM of under 0%.
Take `C=CCc1c(OCC2CO2)c(OC)cc2oc3ccccc3c(=O)c12` (stereo not shown) [Compound 11b, 1-Allyl-3-methoxy-2-(oxiran-2-ylmethoxy)-9H-xanthen-9-one]: the melting point fell in the range of 115 to 116 °C. The “% DPPH Scavenging Activity (2.5 mM)” value in data set [1] is 18.4 ± 1.43 ^D %. Also, in the data set on α-glucosidase, the “α-Glucosidase Inhibition (%) at 400 µM” value turned out to be 99.7 ± 0.29% and the IC50 turned out to be 120 ± 0.03 µM. Besides, at α-amylase, the inhibition at 100 µM is 7.8 ± 0.5% and the IC50 is over 200 µM.
Consider `COc1cc2oc3ccccc3c(=O)c2cc1OCC(O)Cn1ccnc1` (stereo not shown) [Compound 12a, 2-(2-Hydroxy-3-(1H-imidazol-1-yl)propoxy)-3-methoxy-9H-xanthen-9-one], for which the melting point was in the range of 146 to 148 °C. Moreover, the “% DPPH Scavenging Activity (2.5 mM)” value in data set [1] is on record as 1.1 ± 0.01 ^I %. Also, in the data set with α-glucosidase, the “α-Glucosidase Inhibition (%) at 400 µM” value came to 1.87 ± 0.47% and the IC50 was over 400 µM. At α-amylase, this compound showed an inhibition at 100 µM of under 0%.
As to `COc1cc2oc3ccccc3c(=O)c2cc1OCC(O)Cn1ccnc1-c1ccccc1` (stereo not shown) [Compound 12b, 2-(2-Hydroxy-3-(2-phenyl-1H-imidazol-1-yl)propoxy)-3-methoxy-9H-xanthen-9-one], the melting point was 157 to 159 °C. Also, the “% DPPH Scavenging Activity (2.5 mM)” value in data set [1] was 16.3 ± 1.45 ^D,E %. In the data set on α-glucosidase, the “α-Glucosidase Inhibition (%) at 400 µM” value is recorded as 84.9 ± 0.57% and 112.8 ± 0.12 µM corresponded to half-maximal inhibition (IC50). On α-amylase, this compound returned an inhibition at 100 µM of 8.7 ± 0.81% and an IC50 of over 200 µM.
As for `COc1cc2oc3ccccc3c(=O)c2cc1OCC(O)Cn1ccnc1-c1ccc(Cl)cc1` (stereo not shown) [Compound 12c, 2-(3-(2-(4-Chlorophenyl)-1H-imidazol-1-yl)-2-hydroxypropoxy)-3-methoxy-9H-xanthen-9-one], the melting point was 235 °C (dec.). The “% DPPH Scavenging Activity (2.5 mM)” value in data set [1] is given as 19.0 ± 0.22 ^D %. In the data set on α-glucosidase, the “α-Glucosidase Inhibition (%) at 400 µM” value stood at 97.5 ± 1.78% and the IC50 was 210.9 ± 0.33 µM. Besides, at α-amylase, the inhibition at 100 µM turned out to be 3.9 ± 0.55% and the IC50 is over 200 µM.
